In ChEMBL document CHEMBL1759853, “Imidazo[1,5-a]pyrazines: orally efficacious inhibitors of mTORC1 and mTORC2” (Bioorg Med Chem Lett, 2011):
Calls of active or inactive are those of the source. No cut-off for these calls is given here.

How the values were obtained:
[1] = cells; conditions: Homo sapiens, HeLa
[2] = Metabolic stability in mouse liver microsome assessed as extraction ratio; format: ADME; conditions: liver microsomes
[3] = in vitro; conditions: human, liver microsomes
Description: Metabolic stability in human liver microsome assessed as extraction ratio

[4] = target: Insulin-like growth factor 1 receptor (Homo sapiens, UniProt P08069); assay: Inhibition of IGF-1R by ELISA
[5] = system: BT-20; assay: Inhibition of mTORC2 dependent pAkT S473 phosphorylation in human BT-20 cells at 20 uM; format: cell-based
[6] = system: MDA-MB-231; assay: Inhibition of mTORC2 dependent P4E-BP1 T37/46 phosphorylation in human MDA-MB-231 cells at 20 uM; format: cell-based

Insulin-like growth factor 1 receptor, sequence (P08069 31-736 limits assumed): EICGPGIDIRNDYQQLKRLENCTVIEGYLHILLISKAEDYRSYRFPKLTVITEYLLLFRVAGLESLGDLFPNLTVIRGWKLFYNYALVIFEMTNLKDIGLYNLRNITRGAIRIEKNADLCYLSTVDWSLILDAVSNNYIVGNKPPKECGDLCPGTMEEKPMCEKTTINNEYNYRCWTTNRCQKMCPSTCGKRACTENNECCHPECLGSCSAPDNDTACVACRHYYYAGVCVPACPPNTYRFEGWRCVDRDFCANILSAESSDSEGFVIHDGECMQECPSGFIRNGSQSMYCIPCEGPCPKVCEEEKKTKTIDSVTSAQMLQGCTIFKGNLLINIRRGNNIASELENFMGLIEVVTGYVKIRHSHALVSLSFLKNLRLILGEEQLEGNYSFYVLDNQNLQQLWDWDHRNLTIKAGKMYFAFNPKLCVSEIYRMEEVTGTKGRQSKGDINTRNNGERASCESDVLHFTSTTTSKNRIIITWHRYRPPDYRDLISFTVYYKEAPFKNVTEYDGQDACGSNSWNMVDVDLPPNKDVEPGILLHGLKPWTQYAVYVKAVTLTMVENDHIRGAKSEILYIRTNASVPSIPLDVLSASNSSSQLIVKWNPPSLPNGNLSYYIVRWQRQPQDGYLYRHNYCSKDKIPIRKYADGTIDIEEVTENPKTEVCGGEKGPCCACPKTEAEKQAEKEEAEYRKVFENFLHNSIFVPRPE
Insulin-like growth factor 1 receptor, sequence (P08069 741-1367 limits assumed): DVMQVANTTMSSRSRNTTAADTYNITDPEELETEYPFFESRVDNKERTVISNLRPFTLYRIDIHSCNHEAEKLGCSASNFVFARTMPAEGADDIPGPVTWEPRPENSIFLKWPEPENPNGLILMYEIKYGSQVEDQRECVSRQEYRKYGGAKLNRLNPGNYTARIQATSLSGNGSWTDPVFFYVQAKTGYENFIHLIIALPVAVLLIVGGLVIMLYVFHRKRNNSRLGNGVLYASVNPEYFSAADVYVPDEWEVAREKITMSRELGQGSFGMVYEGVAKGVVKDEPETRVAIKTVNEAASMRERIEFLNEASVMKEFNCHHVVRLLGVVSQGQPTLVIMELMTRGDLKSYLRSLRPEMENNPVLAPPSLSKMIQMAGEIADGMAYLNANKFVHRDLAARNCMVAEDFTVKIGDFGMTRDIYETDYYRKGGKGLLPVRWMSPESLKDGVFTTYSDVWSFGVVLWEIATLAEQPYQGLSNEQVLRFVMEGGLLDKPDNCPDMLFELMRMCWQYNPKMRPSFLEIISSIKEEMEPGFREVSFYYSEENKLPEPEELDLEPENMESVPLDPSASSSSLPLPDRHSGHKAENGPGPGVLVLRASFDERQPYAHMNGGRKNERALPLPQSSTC

Row | Structure (SMILES) | IC50 [1] | hepatic extraction ratio [2] | hepatic extraction ratio [3] | also measured
1 | Nc1nccn2c(C3CCC3)nc(-c3cc4ccccc4s3)c12 | 130 nM | – | – | –
2 | Nc1nccn2c1c(-c1cc3ccccc3[nH]1)nc2[C@H]1C[C@@H](CO)C1 | 320 nM | 0.79 | 0.7 | –
3 | CC(=O)N1CCN([C@H]2C[C@@H](c3nc(-c4cc5ccccc5[nH]4)c4c(N)nccn43)C2)CC1 | 350 nM | 0.59 | 0.58 | –
4 | Nc1nccn2c(C3CCC3)nc(-c3c[nH]c4ccccc34)c12 | > 10000 nM | – | – | –
5 | CS(=O)(=O)NC[C@H]1CC[C@H](c2nc(-c3cc4ccccc4[nH]3)c3c(N)nccn32)CC1 | 410 nM | – | – | –
6 | CO[C@H]1C[C@@H]2CC[C@@H](C)[C@@](O)(O2)C(=O)C(=O)N2CCCC[C@H]2C(=O)O[C@H]([C@H](C)C[C@@H]2CC[C@@H](O)[C@H](OC)C2)CC(=O)[C@H](C)/C=C(\C)[C@@H](O)[C@@H](OC)C(=O)[C@H](C)C[C@H](C)/C=C/C=C/C=C/1C | – | – | – | inhibition [5]: inactive; inhibition [6]: 40%
7 | Nc1nccn2c(C3CCC3)nc(-c3cc4cccnc4[nH]3)c12 | 400 nM | – | – | –
8 | Nc1nccn2c(C3CCC3)nc(-c3ccc4sccc4c3)c12 | 1300 nM | – | – | –
9 | Nc1nccn2c(C3CCC3)nc(-c3cccc4ccccc34)c12 | > 10000 nM | – | – | –

Further compounds by falling IC50 [1], results first:

Row | IC50 [1] | hepatic extraction ratio [2] | hepatic extraction ratio [3] | Structure (SMILES) | also measured
10 | 7150 nM | – | – | Nc1nccn2c(C3CCC3)nc(-c3ccc4ncccc4c3)c12 | –
11 | 3120 nM | – | – | Nc1nccn2c(C3CCC3)nc(-c3ccc4cc[nH]c4c3)c12 | –
12 | 2480 nM | – | – | Nc1nccn2c(C3CCC3)nc(-c3ccc4[nH]ccc4c3)c12 | –
13 | 1000 nM | 0.28 | 0.34 | NC[C@H]1CC[C@H](c2nc(-c3cc4ccccc4[nH]3)c3c(N)nccn32)CC1 | –
14 | 900 nM | – | – | Nc1nccn2c(C3CCC3)nc(-c3ccc4cccnc4c3)c12 | IC50 [4]: > 10000 nM
15 | 370 nM | 0.6 | 0.74 | Nc1nccn2c1c(-c1cc3ccccc3[nH]1)nc2[C@H]1C[C@@H](O)C1 | –
16 | 170 nM | 0.79 | 0.74 | Nc1nccn2c1c(-c1cc3ccccc3[nH]1)nc2[C@H]1CC[C@H](CNC(=O)C2CCC2)CC1 | –
17 | 90 nM | 0.76 | 0.78 | Nc1nccn2c1c(-c1cc3ccccc3[nH]1)nc2[C@H]1CC[C@H](CNC(=O)c2ccoc2)CC1 | –
